Reference: PMC10252837, “A Novel Time-Resolved Fluorescence Resonance Energy Transfer Assay for the Discovery of Small-Molecule Inhibitors of HIV-1 Tat-Regulated Transcription” (International Journal of Molecular Sciences, 2023)
“Also recorded” adds a separate entry of the source.

Legend:
in vitro = details: human
Experimental: (§1) (A) (Upper panel) Doxycycline (Dox)-inducible Tat-expressing bl-DTR cells cultured in 96-well plates treated with two-fold serial dilutions of each compound in the presence of Dox (50 ng/mL). At 24 h after treatment, the activity of firefly luciferase (F-Luc), indicating Tat activity, was determined as described in the Materials and Methods section. (Bottom panel) TZM-bl cells were treated with two-fold serial dilutions of the indicated compound and then infected with the HIV-1NL4-3 strain at a multiplicity of infection (MOI) of 1. At 24 h after infection, the viral infectivity and cell viability were determined as described in the Materials and Methods section. […] (B) 2 × 10^5 TZM-bl cells growing in 6-well plates were infected with HIV-1 (MOI = 1), transfected with a Tat-expressing plasmid (2 μg) or treated with PMA ([…]) upon indicated compounds at indicated concentrations, respectively. At 24 h after treatment, LTR promoter activity was determined via a Bright-Glo Luciferase Assay Kit. The relative activities are represented as the mean ± SD (n = 3) compared with the DMSO vesicle. (C) The biotinylated TAR RNA (2 nM) was incubated with ARM peptide (100 nM) in the presence of increasing amounts of the hit compound and separated on a 3–12% native polyacrylamide gel. The mobility of biotinylated TAR RNA was detected by chemiluminescence.
(§2) To determine the inhibitory effect of hit compounds on HIV-1 infection, we used TZM-bl cells (also referred to as JC53BL-13), which express HIV-1 receptors and contain the LTR-driven F-Luc gene controlled by HIV-1 infection, as described previously but with some minor modifications. Briefly, 1 × 10^4 TZM-bl cells cultured on 96-well plates were treated in triplicate wells with 1:2 serially diluted compounds at concentrations ranging from 0 to 12.5 µM. […] At 24 h after infection, the inhibitory effect of the hit compounds on infectivity was determined using the Bright-Glo Luciferase Assay Kit (Promega). The dose–response data are expressed as a relative percentage compared to the DMSO control (vehicle). The inhibitory effects of the hit compounds on HIV-1 replication were determined as previously described. […] After infection, the cells were treated with hit compounds at the indicated concentrations at 3–5 days after treatment, and the inhibitory effect of hit compounds on viral replication was determined by the titration of virions from the cell supernatant using a p24 […]™ Assay Kit (PerkinElmer) according to the manufacturer’s instructions. Cell viability was determined using resazurin-based PrestoBlue™ cell viability reagent (Thermo Fisher Scientific, Waltham, MA, USA) according to the manufacturer’s instructions. […]

TZM-bl cells = test: in vitro; details: human, 24 h
Experimental: as §1, §2

[1] = test system: peripheral blood mononuclear cells; test: Cell viability in PBMCs (PrestoBlue); format: cell-based; details: primary PBMCs, 72 h
Experimental: (§3) Figure 6 Phytohemagglutinin-preactivated peripheral blood mononuclear cells were infected with HIV-1NL4-3 (A) or HIV-1AD8 (B) at an MOI of 0.1 for 2 h and then treated with compounds at indicated concentrations for 72 h. […] The data are expressed as the mean ± SD (n = 3). * p < 0.05 indicates a comparison with the cells treated with DMSO (vehicle). ARVs, anti-retroviral drugs; EFV, efavirenz; DOL, dolutegravir; AZT, azidothymidine.
(§4) The experiments were performed in triplicate.

[2] = test system: Tat activity (Tat-induced viral transcription); test: microbe, parasite or virus in culture; format: cell-based, HIV-1
Experimental: as §1
The inhibitory effect of hit compounds on Tat-mediated transcription was determined using doxycycline (Dox)-inducible Tat-expressing TZM-bl cells that express the LTR-driven firefly luciferase (F-Luc) gene under the control of Tat upon Dox treatment, as described previously but with minor modifications. In brief, 1 × 10^4 of the cells were cultured in 96-well plates, treated with compounds at a concentration of 10 µM (in the second round of screening), and then treated with Dox (final concentration: 50 ng/mL). After 24 h, the inhibitory effect of the hit compounds on Tat activity was determined by measuring F-Luc activity using a Bright-Glo Luciferase Assay Kit (Promega, Madison, WI, USA). For the dose–response assay, cells cultured in 100 μL medium were treated with 50 μL of 1:2 serially diluted compounds at concentrations ranging from 0 to 12.5 µM and then treated with 50 μL of Dox (final concentration: 50 ng/mL). At 24 h post-treatment, the F-Luc activity was determined as described above. All luminescence assays were carried out in a SpectraMax Paradigm Microplate Reader (Molecular Devices, San Jose, CA, USA), and the data were expressed as a relative percentage (%) compared to the DMSO control (vehicle) in the presence of Dox. The experiments were performed in triplicate.

TAR RNA = test: RNA gel mobility shift assay (biotinylated TAR RNA and ARM peptide); format: binding, HIV-1; details: 2 nM biotinylated TAR RNA, 100 nM ARM peptide
Experimental: To determine the inhibitory effect of hit compounds on the Tat (ARM)-TAR RNA interaction, a gel shift assay was carried out using the LightShift Chemiluminescent RNA EMSA Kit (Thermo Scientific) according to the manufacturer’s instructions, but with minor modifications suitable for our experiment. Briefly, 2 nM of 5′-biotinylated TAR RNA (nt 31) and 100 nM of ARM peptide were incubated with increasing amounts of hit compounds in the 1× REMSA binding buffer (10 mM HEPES pH 7.5, 10 mM MgCl2, 5 mM KCl, 1 mM DTT, and v/v 5 % glycerol) supplemented with 8 units/reaction of RNase OUT (Invitrogen) (final: 20 µL) at 20 °C for 20 min. Subsequently, the reaction was separated on a 3–12% native gradient PAGE gel. The RNA was then transferred to a nylon membrane to detect the mobility-shifted biotinylated TAR RNA using StAV-horseradish peroxidase conjugate. Chemiluminescence was detected using a GBox Chemi chemi-luminometer (Syngene, Fredrick, MD, USA).

HIV-1AD8 (R5-tropic) = test: HIV-1 replication assay in PBMCs (p24), HIV-1AD8; format: cell-based; details: PHA-preactivated PBMCs, MOI 0.1, 72 h; 460-G06 at 12.5-100 nM
Experimental: as §3, §4

HIV-1NL4-3 = test: HIV-1 infectivity in TZM-bl cells (LTR-driven F-Luc); format: cell-based; details: Human immunodeficiency virus 1, TZM-bl, 24 h, read-out: IC50 of Infectivity
Experimental: as §1
To determine the inhibitory effect of hit compounds on HIV-1 infection, we used TZM-bl cells (also referred to as JC53BL-13), which express HIV-1 receptors and contain the LTR-driven F-Luc gene controlled by HIV-1 infection, as described previously but with some minor modifications. Briefly, 1 × 10^4 TZM-bl cells cultured on 96-well plates were treated in triplicate wells with 1:2 serially diluted compounds at concentrations ranging from 0 to 12.5 µM. Subsequently, the cells were infected with HIV-1NL4-3 virus obtained from the transfection of 293T cells at a multiplicity of infection (MOI) of 1. At 24 h after infection, the inhibitory effect of the hit compounds on infectivity was determined using the Bright-Glo Luciferase Assay Kit (Promega). The dose–response data are expressed as a relative percentage compared to the DMSO control (vehicle). The inhibitory effects of the hit compounds on HIV-1 replication were determined as previously described. Briefly, 4 × 10^5 PBMCs pre-activated with phytohemagglutinin M (PHA-M) were washed with fresh media and then infected with HIV-1NL4-3 or HIV-1AD8 at an MOI of 0.1 by spinoculation for 2 h. After infection, the cells were treated with hit compounds at the indicated concentrations at 3–5 days after treatment, and the inhibitory effect of hit compounds on viral replication was determined by the titration of virions from the cell supernatant using a p24 […]™ Assay Kit (PerkinElmer) according to the manufacturer’s instructions. Cell viability was determined using resazurin-based PrestoBlue™ cell viability reagent (Thermo Fisher Scientific, Waltham, MA, USA) according to the manufacturer’s instructions. The data are presented as relative percentages compared to the DMSO control (vehicle). The experiments were performed in triplicate.

HIV-1NL4-3 (X4-tropic) = test: HIV-1 replication assay in PBMCs (p24), HIV-1NL4-3; format: cell-based; details: PHA-preactivated PBMCs, MOI 0.1, 72 h; 460-G06 at 12.5-100 nM
Experimental: as §3, §4

## CN1C/C=C/CCOc2cccc(c2)-c2ccnc(n2)Nc2cccc(c2)C1 [Hit 460-G06, (E)-6-methyl-12-oxa-3,6-diaza-2(4,2)-pyrimidine-1,4(1,3)-dibenzenacyclododecaphan-8-ene]
In vitro
  CC50 at 24 h: 4940 ± 440 nM
TZM-bl cells
  concentration at which cytotoxicity is indicated: over 0.1 μM
[1]
  cell viability / cytotoxicity in PBMCs, in words: without a severe decrease in cell viability; also recorded: such cytotoxicity was not observed
[2]; 0-12.5 μM, bl-DTR cells
  dose response of Tat activity (F-Luc), in words: gradual inhibition of F-Luc activity
[2]; Human immunodeficiency virus 1, 24 h, read-out: IC50 of Tat Activity
  IC50: 11 ± 1 nM
TAR RNA
  Kd: 132000 nM
  dissociation of ARM from TAR RNA, in words: directly bound to the TAR RNA and efficiently dissociated the ARM from TAR RNA
HIV-1AD8 (R5-tropic)
  inhibition of viral replication, in words: inhibited viral replication in a dose-dependent manner
HIV-1NL4-3
  IC50: 13 ± 3 nM
HIV-1NL4-3 (X4-tropic)
  inhibition of viral replication, in words: inhibited viral replication in a dose-dependent manner
